Results as given in US20130288364A1, “ENGINEERED KINETOCHORES AND USES THEREOF” (Whitehead Institute for Biomedical Research, priority 2010, published 2013).

Test system: U2OS-LacO cells
Experiment: Interaction of LacI foci with spindle microtubules (foci shape)
Format: cell-based, human
Details: 2 μM
From the text: We next sought to test the interaction of these foci with spindle microtubules. […] This deformation of the LacI foci could represent microtubules binding the structure to opposite spindle poles. In such a situation, tension across the region would result in a change in the shape of the chromatin. Consistent with microtubule interactions with the foci, the deformed shape of the GFP-CENP-T-ΔC-LacI focus was dependent on microtubules, as nocodazole treatment relaxed this to a circular morphology, with an average length to width ration of 1.15 (FIG. 6B). See also FIG. 8. Deformation of the GFP-CENP-T-ΔC-LacI focus was exacerbated by treatment with the Aurora B inhibitor ZM447439, which has been proposed to regulate both kinetochore-microtubule attachments (Cheeseman and Desai, 2008) and chromatinstructure (Lipp et al., 2007).
Immunofluorescence in human cells was conducted as described previously (Kline et al., 2006). […]

`COc1cc2c(Nc3ccc(NC(=O)c4ccccc4)cc3)ncnc2cc1OCCCN1CCOCC1` [ZM447439] was tested. Which “effect on deformation of the GFP-CENP-T-ΔC-LacI focus” value did it give?
The value was “exacerbated”.
